Laboratory results reported in ChEMBL document CHEMBL4261526 (Medchemcomm, 2017).

What was measured:
Homo sapiens = organism: Homo sapiens; experiment: Selectivity ratio of IC50 for recombinant human BuChE to IC50 for recombinant human AChE
Cholinesterase [1] = target: T1, Cholinesterase (Homo sapiens, UniProt P06276); experiment: Inhibition of recombinant human BuChE using butyrylthiocholine as substrate preincubated for 30 mins followed by substrate addition and measured for 20 mins by Ellman's assay
Acetylcholinesterase [2] = target: T2, Acetylcholinesterase (Homo sapiens, UniProt P22303); experiment: Inhibition of recombinant human AChE using acetylthiocholine iodide as substrate preincubated for 30 mins followed by substrate addition and measured for 20 mins by Ellman's assay
Acetylcholinesterase [3] = target: T2, Acetylcholinesterase; experiment: Inhibition of recombinant human AChE using acetylthiocholine iodide as substrate preincubated for 20 mins followed by substrate addition and measured for 5 mins by Ellman's assay
in vitro [4] = conditions: human, HepG2 cells
Description: Cytotoxicity against human HepG2 cells assessed as cell viability at 300 uM by MTT assay relative to control

Cholinesterase [5] = target: T1, Cholinesterase; experiment: Inhibition of human serum BuChE using butyrylthiocholine iodide as substrate preincubated for 20 mins followed by substrate addition and measured for 5 mins by Ellman's assay
in vitro [6] = conditions: human, HepG2 cells; remark: listed apart in the source
Description: Cytotoxicity against human HepG2 cells assessed as cell viability at 100 uM by MTT assay relative to control

Cholinesterase [7] = target: T1, Cholinesterase; experiment: Potency index, ratio of tacrine IC50 to test compound IC50 for human serum BuChE
in vitro [8] = conditions: human, HepG2 cells; remark: listed apart in the source
Description: Cytotoxicity against human HepG2 cells assessed as cell viability at 10 uM by MTT assay relative to control

in vitro [9] = conditions: human, HepG2 cells; remark: listed apart in the source
Description: Cytotoxicity against human HepG2 cells assessed as cell viability at 1 uM by MTT assay relative to control

Acetylcholinesterase [10] = target: T2, Acetylcholinesterase; experiment: Potency index, ratio of tacrine IC50 to test compound IC50 for recombinant human AChE

T1 sequence (P06276 whole entry): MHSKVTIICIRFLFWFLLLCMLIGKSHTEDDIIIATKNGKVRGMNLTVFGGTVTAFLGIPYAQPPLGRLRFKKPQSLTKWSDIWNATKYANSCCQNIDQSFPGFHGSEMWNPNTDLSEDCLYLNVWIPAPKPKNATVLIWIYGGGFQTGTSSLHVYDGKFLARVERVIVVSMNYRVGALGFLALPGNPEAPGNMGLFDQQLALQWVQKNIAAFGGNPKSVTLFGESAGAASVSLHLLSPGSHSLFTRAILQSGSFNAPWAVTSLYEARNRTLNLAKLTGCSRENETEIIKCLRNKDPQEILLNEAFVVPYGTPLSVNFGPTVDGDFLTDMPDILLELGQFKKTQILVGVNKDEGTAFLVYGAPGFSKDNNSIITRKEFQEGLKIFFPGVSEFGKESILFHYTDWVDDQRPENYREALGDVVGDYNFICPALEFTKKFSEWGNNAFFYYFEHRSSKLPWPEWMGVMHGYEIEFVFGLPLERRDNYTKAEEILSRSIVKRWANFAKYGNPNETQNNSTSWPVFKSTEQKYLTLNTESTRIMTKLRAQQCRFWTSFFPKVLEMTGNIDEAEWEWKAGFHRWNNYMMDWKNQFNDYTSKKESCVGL
T2 sequence (P22303 whole entry): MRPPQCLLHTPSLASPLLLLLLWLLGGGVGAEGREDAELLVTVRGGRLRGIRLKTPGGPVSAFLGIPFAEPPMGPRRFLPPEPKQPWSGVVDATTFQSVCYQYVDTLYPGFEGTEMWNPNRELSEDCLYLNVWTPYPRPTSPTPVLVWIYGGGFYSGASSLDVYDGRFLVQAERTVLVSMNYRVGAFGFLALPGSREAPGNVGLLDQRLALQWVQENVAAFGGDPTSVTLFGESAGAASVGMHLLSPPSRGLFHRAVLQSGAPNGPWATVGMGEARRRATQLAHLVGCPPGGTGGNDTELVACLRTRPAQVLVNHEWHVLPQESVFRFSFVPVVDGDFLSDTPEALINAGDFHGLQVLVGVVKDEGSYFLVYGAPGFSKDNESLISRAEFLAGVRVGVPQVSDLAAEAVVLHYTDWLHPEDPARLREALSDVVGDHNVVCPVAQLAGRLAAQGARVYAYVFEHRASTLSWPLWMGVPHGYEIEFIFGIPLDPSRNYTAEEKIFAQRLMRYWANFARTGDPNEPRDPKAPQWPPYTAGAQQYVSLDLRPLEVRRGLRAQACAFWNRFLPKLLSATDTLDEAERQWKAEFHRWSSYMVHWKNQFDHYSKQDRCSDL

SMILES	Ratio IC50 (Homo sapiens)	IC50 (Cholinesterase [1]) [nM]	IC50 (Acetylcholinesterase [2]) [nM]	IC50 (Acetylcholinesterase [3]) [nM]	viability at 300 µM (in vitro [4]) [%]	IC50 (Cholinesterase [5]) [nM]	viability at 100 µM (in vitro [6]) [%]	Ratio IC50 (Cholinesterase [7])	viability at 10 µM (in vitro [8]) [%]	viability at 1 µM (in vitro [9]) [%]	Ratio IC50 (Acetylcholinesterase [10])
Nc1c2c(nc3cc(Cl)ccc13)C[C@H]1C=C(CCCCn3cc(CO)nn3)C[C@H]2C1	488	210	0.43	–	–	–	–	–	–	–	–
Cn1c2nc3ccccc3c-2c(NCCCCCCCCNc2c3c(nc4ccccc24)CCCC3)c2ccccc21	–	–	–	0.95	37.9	2.29	38.4	17.4	41.4	78.1	368
Cn1c2nc3ccccc3c-2c(NCCCCCCNc2c3c(nc4ccccc24)CCCC3)c2ccccc21	–	–	–	1.25	36.5	9	36.2	–	34.9	40.9	–
Cn1c2nc3ccccc3c-2c(NCCCCNc2c3c(nc4ccccc24)CCCC3)c2ccccc21	–	–	–	53	34.8	21.8	33.8	–	37.2	99.5	–
